Numbering of substitutions follows the chain as printed.
Key:
Format in all cases: cell-based
[1] = tested on: GIRK2 L257Y mutant channel; experiment: whole-cell patch clamp, GIRK2 L257Y mutant channel; settings: n=9; for activation of GIRK2 L257Y, percentage change from basal current: alcohols as for wild type (100 mM)
Method: (§1) Point mutations were introduced by Quickchange site directed mutagenesis kit (Stratagene). The GIRK2 PIP mutant was generated by overlap-PCR method. […] Mutations were confirmed by automated DNA sequencing methods. […] Cells were plated in a 12 well dish, and were transiently transfected using Lipofectamine 2000 (Invitrogen). After 12-24 hrs, cells were re-plated to 12-mm glass coverslips coated with poly-D-[…] microgram/ml). […] The cells were co-transfected with 0.04 micrograms of eYFP cDNA to identify transfected cells. 0.8 micrograms of Muscarinic Receptor 2 (M2R) was also co-transfected for experiments with Carbachol. […] Whole-cell patch clamp recordings were performed 24-72 hrs after transfection. […] Alcohols, 5 μM Carbachol, and 1 mM BaCl2 (diluted in 20K solution) were applied from outside the cell with the rapid perfusion system (Warner Instruments). […] Current-voltage relationships also were obtained from the ramp protocol. This protocol was used to measure the inwardly rectifying currents at -100 mV and to ensure stability of recording by monitoring a reversal potential and inward rectification. […] Alcohol and Carbachol modulated currents were measured by averaging two consecutive current readings upon reaching steady state, and subtracting the averaged basal current before and after the application of modulator.

[2] = biological target: T1, GIRK2 PIP channel (Mus musculus, UniProt P48542, D228N/I234L/N231K); experiment: whole-cell patch clamp, GIRK2 PIP chimeric channel; settings: equimolar alcohol series (50 mM)
T1 construct: expressed in transfected cells; host or cells: HEK293 / HEK293T
T1 sequence (P48542 1-425 D228N/N231K/I234L): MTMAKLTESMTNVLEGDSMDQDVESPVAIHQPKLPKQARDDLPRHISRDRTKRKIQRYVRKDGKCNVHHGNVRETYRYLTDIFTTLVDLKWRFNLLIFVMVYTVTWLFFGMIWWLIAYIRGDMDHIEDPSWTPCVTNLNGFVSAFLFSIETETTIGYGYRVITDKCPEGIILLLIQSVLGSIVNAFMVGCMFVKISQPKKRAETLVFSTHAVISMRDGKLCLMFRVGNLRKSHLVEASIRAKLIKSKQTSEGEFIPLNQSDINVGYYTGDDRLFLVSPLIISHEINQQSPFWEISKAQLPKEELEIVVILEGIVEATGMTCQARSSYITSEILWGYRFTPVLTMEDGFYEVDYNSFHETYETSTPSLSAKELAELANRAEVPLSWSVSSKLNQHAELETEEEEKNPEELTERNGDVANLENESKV
Method: To test whether this sensitivity to inhibition would be altered by mutation at the MPD-bound hydrophobic pocket, Leu257 was mutated to Trp for this channel.
HEK 293T cells were cultured in DMEM supplemented with 10% FBS, and 1× Glutamax (Invitrogen) in a humidified 37° incubator with 5% CO2. Cells were plated in a 12 well dish, and were transiently transfected using Lipofectamine 2000 (Invitrogen). After 12-24 hrs, cells were re-plated to 12-mm glass coverslips coated with poly-D-Lysine (20 microgram/ml).
HEK293 cells were transfected with 0.2 micrograms of channel cDNA. The cells were co-transfected with 0.04 micrograms of eYFP cDNA to identify transfected cells. 0.8 micrograms of Muscarinic Receptor 2 (M2R) was also co-transfected for experiments with Carbachol. For experiments with and without m-phosducin, 0.8 ug of m-phosducin cDNA was used versus a PCDNA3.1 vector control.
Whole-cell patch clamp recordings were performed 24-72 hrs after transfection. Borosilicate glass electrodes (Warner Instruments) of 5-7 milliohms filled with intracellular solution (130 mM KCl, 20 mM NaCl, 5 mM EGTA, 2.56 mM K2ATP, 5.46 mM MgCl2, 0.30 mM Li2GTP, and 10 mM HEPES (pH 7.4)) was used. Membrane currents were recorded using Axopatch 200B (Axon Instruments) amplifier, adjusted electronically for cell capacitance and series resistance (80-100%), filtered at 1 kHz with an 8-pole Bessel filter and digitized at 5 kHz with a Digidata 1200 interface (Axon Instruments). The cells rapidly perfused with a 20 mM K^+ (20K) solution (20 mM KCl, 140 mM NaCl, 0.5 mM CaCl2, 2 mM MgCl2 and 10 mM HEPES (pH7.4)). Alcohols, 5 μM Carbachol, and 1 mM BaCl2 (diluted in 20K solution) were applied from outside the cell with the rapid perfusion system (Warner Instruments). Whole-cell currents were measured using a ramp protocol that holds at −40 mV, steps to −100 mV then ramps to +50 mV and repeats every 2 seconds. Current-voltage relationships also were obtained from the ramp protocol. This protocol was used to measure the inwardly rectifying currents at −100 mV and to ensure stability of recording by monitoring a reversal potential and inward rectification. Current density was measured by dividing inward current at −100 mV by membrane capacitance that was compensated during the recording. Basal currents were measured as the Ba^++ blocked inward currents at −100 mV. Alcohol and Carbachol modulated currents were measured by averaging two consecutive current readings upon reaching steady state, and subtracting the averaged basal current before and after the application of modulator. Pooled data are presented as Mean±SEM and evaluated for statistical significance by a 1-way ANOVA, followed by Bonferroni's multiple comparison post-hoc test.

[3] = biological target: T2, GIRK4 S143T mutant channel (GIRK4*) (Rattus norvegicus, UniProt P48548, S143T); experiment: whole-cell patch clamp, GIRK4 S143T (GIRK4*) channel; settings: for modulation of GIRK4 S143T mutant channel, mean percentage change from basal: n=7; for activation of GIRK4*, mean percentage change from basal current: wild type GIRK4*, n=8
T2 construct: expressed in transfected cells; host or cells: HEK293 / HEK293T
T2 sequence (P48548 1-419 S143T): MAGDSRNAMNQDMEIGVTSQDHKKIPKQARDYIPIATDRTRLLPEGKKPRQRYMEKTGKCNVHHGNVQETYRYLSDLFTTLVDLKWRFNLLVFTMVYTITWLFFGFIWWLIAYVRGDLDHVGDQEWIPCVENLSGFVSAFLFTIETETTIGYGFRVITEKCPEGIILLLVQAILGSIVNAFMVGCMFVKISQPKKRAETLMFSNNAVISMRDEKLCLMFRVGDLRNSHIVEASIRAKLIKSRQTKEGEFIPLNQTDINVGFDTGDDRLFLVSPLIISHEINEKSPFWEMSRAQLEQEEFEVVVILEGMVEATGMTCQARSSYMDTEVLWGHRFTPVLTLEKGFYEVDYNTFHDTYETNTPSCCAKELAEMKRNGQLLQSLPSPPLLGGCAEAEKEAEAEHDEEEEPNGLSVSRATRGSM
Method: as §1

[4] = biological target: T3, GIRK2 L257A mutant channel (Mus musculus, UniProt P48542, L257A); experiment: whole-cell patch clamp, GIRK2 L257A mutant channel; settings: n=9; for activation of GIRK2 L257A, percentage change from basal current: alcohols as for wild type (100 mM)
T3 construct: expressed in transfected cells; host or cells: HEK293T
T3 sequence (P48542 1-425 L257A): T1 sequence (P48542 1-425 D228N/N231K/I234L) with N228D, K231N, L234I, L257A
Method: as §1

[5] = biological target: T4, GIRK2 L257W mutant channel (Mus musculus, UniProt P48542, L257W); experiment: whole-cell patch clamp, GIRK2 L257W mutant channel; settings: n=9; for modulation of GIRK2 L257W, percentage change from basal current (negative = inhibition): alcohols as for wild type (100 mM)
T4 construct: expressed in transfected cells; host or cells: HEK293T
T4 sequence (P48542 1-425 L257W): T1 sequence (P48542 1-425 D228N/N231K/I234L) with N228D, K231N, L234I, L257W
Method: as §1

[6] = 5 μM Carbachol, M2R co-transfected

Row | Compound | inhibition of GIRK2 PIP channel, percentage inhibition [2] | modulation of GIRK4 S143T mutant channel, mean percentage change from basal [3] | activation of GIRK4*, mean percentage change from basal current [3] | activation of GIRK2 L257A, percentage change from basal current [4] | modulation of GIRK2 L257W, percentage change from basal current (negative = inhibition) [5] | Carb activation of GIRK4* wild type, % of basal current [3, 6] | Carbachol activated currents, GIRK2 L257A, percentage change from basal current [4, 6] | G-protein mediated activation, GIRK2 L257W, percentage change from basal current [5, 6] | activation of GIRK2 L257Y, percentage change from basal current [1] | Carbachol activation, GIRK2 L257Y, percentage change from basal current [1, 6]
1 | 1-propanol [1-PrOH] | −87±2% | 51±6% | 64±7% | 467±44% | 57±6% |  |  |  | 275±34% | 
2 | 1-butanol [1-BuOH] | −97±1% | 23±3% |  |  |  |  |  |  |  | 
3 | C[N+](C)(C)CCOC(N)=O [Carbachol] |  |  |  |  |  | 231±38% | 36±6% | 12±2% |  | 38±11%

The next lines start with results.

Row | inhibition of GIRK2 PIP channel, percentage inhibition [2] | modulation of GIRK4 S143T mutant channel, mean percentage change from basal [3] | activation of GIRK4*, mean percentage change from basal current [3] | activation of GIRK2 L257A, percentage change from basal current [4] | modulation of GIRK2 L257W, percentage change from basal current (negative = inhibition) [5] | Carb activation of GIRK4* wild type, % of basal current [3, 6] | Carbachol activated currents, GIRK2 L257A, percentage change from basal current [4, 6] | G-protein mediated activation, GIRK2 L257W, percentage change from basal current [5, 6] | Compound | activation of GIRK2 L257Y, percentage change from basal current [1] | Carbachol activation, GIRK2 L257Y, percentage change from basal current [1, 6]
4 | −18±2% | 35±4% | 36±3% | 132±9% | 34±3% |  |  |  | CCO [EtOH, ethanol] | 92±10% | 
5 | −80±2% | 87±12% | 113±14% | 330±27% | −97±4% |  |  |  | CC(O)CC(C)(C)O (racemic) [MPD, 2-methyl-2,4-pentanediol] | 73±10% | 

Reference: patent publication US8097422B2, “Kir channel modulators” (Salk Institute for Biological Studies, priority 2007, dated 2012)
